Source: the supplement of paper PMC10307832

What was measured:
Test in all cases: relative viability (nuclei count vs DMSO), 5 days (fraction); higher = more cells survive
Ruboxistaurin = compound: CN(C)C[C@@H]1CCn2cc(c3ccccc32)C2=C(C(=O)NC2=O)c2cn(c3ccccc23)CCO1 [Ruboxistaurin]
Outline: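 Lung cancer cell lines in 1536-well plates were exposed by pinning to five library-drug doses (not always all listed) √10 apart, following an overnight hold at 37 °C. MetaXpress counted Hoechst-stained nuclei from 4× images taken after 5 days without medium change. Viability is the median ratio of treated-well to vehicle-well nuclei across plates. Plates required control CV below 25% and at least one doubling.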

[1] = compound: CN(C)C[C@@H]1CCn2cc(c3ccccc32)C2=C(C(=O)NC2=O)c2cn(c3ccccc23)CCO1 [Ruboxistaurin] + O=C(CCCCCCC(=O)Nc1ccccc1)NO [Vorinostat] (partner 1 µM)
Outline: (§1)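 Lung cancer cell lines in 1536-well plates got either a single drug or a fixed anchor-drug dose together with five library-drug doses (not always all listed) in √10 steps, by pin tool, on the day after seeding. Nuclei were counted after 5 days, and relative viability is the treated-to-vehicle ratio of nuclei counts. Values are medians of duplicate plates.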

[2] = compound: CN(C)C[C@@H]1CCn2cc(c3ccccc32)C2=C(C(=O)NC2=O)c2cn(c3ccccc23)CCO1 [Ruboxistaurin] + C[C@]1(O)C[C@@H](c2nc(-c3ccc4ccc(-c5ccccc5)nc4c3)c3c(N)nccn32)C1 [Linsitinib] (partner 1 µM)
Outline: as §1

[3] = compound: CN(C)C[C@@H]1CCn2cc(c3ccccc32)C2=C(C(=O)NC2=O)c2cn(c3ccccc23)CCO1 [Ruboxistaurin] + CCNC(=O)c1noc(-c2cc(C(C)C)c(O)cc2O)c1-c1ccc(CN2CCOCC2)cc1 [Luminespib] (partner 0.01 µM)
Outline: as §1

[4] = compound: CN(C)C[C@@H]1CCn2cc(c3ccccc32)C2=C(C(=O)NC2=O)c2cn(c3ccccc23)CCO1 [Ruboxistaurin] + C[C@@H](Oc1cc(-c2cnn(C3CCNCC3)c2)cnc1N)c1c(Cl)ccc(F)c1Cl [Crizotinib] (partner 1 µM)
Outline: as §1

Cell Line | relative viability (Ruboxistaurin; 0.08 µM) | relative viability (Ruboxistaurin; 0.8 µM) | relative viability (Ruboxistaurin; 2.53 µM) | relative viability (Ruboxistaurin; 8 µM) | relative viability ([1]; first compound 0.08 µM) | relative viability ([1]; first compound 0.8 µM) | relative viability ([1]; first compound 2.53 µM) | relative viability ([1]; first compound 8 µM) | relative viability ([2]; first compound 0.08 µM) | relative viability ([2]; first compound 0.8 µM) | relative viability ([2]; first compound 2.53 µM) | relative viability ([2]; first compound 8 µM) | relative viability ([3]; first compound 0.08 µM) | relative viability ([3]; first compound 0.8 µM) | relative viability ([3]; first compound 2.53 µM) | relative viability ([3]; first compound 8 µM) | relative viability ([4]; first compound 0.08 µM) | relative viability ([4]; first compound 0.8 µM) | relative viability ([4]; first compound 2.53 µM) | relative viability ([4]; first compound 8 µM)
LOU-NH91 | 1.09 | 0.939 | 1.01 | 0.927 | 0.954 | 0.868 | 0.958 | 0.878 | 1.11 | 0.902 | 0.994 | 0.883 | 0.286 | 0.298 | 0.361 | 0.369 | 0.806 | 0.694 | 0.757 | 0.77
LU99A | 0.956 | 0.858 | 1.04 | 0.852 | 0.497 | 0.442 | 0.433 | 0.416 | 0.614 | 0.455 | 0.463 | 0.33 | 0.239 | 0.224 | 0.265 | 0.24 | 0.507 | 0.506 | 0.503 | 0.506
LXF-289 | 1.02 | 0.999 | 0.991 | 1.06 | 0.858 | 0.787 | 0.777 | 0.918 | 0.925 | 0.951 | 0.966 | 1.05 | 0.679 | 0.628 | 0.677 | 0.754 | 0.826 | 0.758 | 0.826 | 0.951
NCI-H23 | 0.974 | 0.892 | 1.03 | 0.886 | 0.425 | 0.564 | 0.548 | 0.453 | 0.627 | 0.402 | 0.544 | 0.484 | 0.23 | 0.213 | 0.225 | 0.2 | 0.542 | 0.395 | 0.552 | 0.533
NCI-H322M | 1.02 | 0.863 | 0.895 | 0.551 | 0.878 | 0.753 | 0.737 | 0.556 | 0.969 | 0.826 | 0.861 | 0.779 | 0.836 | 0.718 | 0.766 | 0.399 | 0.96 | 0.863 | 0.949 | 1.11
NCI-H358 | 1.14 | 0.881 | 0.984 | 0.712 | 0.865 | 0.659 | 0.768 | 0.666 | 0.835 | 0.59 | 0.63 | 0.367 | 0.498 | 0.32 | 0.242 | 0.386 | 0.518 | 0.517 | 0.609 | 0.573
NCI-H441 | 1.14 | 0.936 | 1.19 | 0.947 | 0.953 | 0.989 | 0.787 | 0.724 | 0.633 | 0.508 | 0.495 | 0.458 | 0.407 | 0.276 | 0.355 | 0.338 | 0.787 | 0.708 | 0.771 | 0.636
NCI-H460 | 1.01 | 0.98 | 1.04 | 1.02 | 0.859 | 0.651 | 0.711 | 0.316 | 0.919 | 0.6 | 0.855 | 0.349 | 0.0344 | 0.0361 | 0.0325 | 0.0312 | 0.772 | 0.822 | 1.02 | 0.537
NCI-H520 | 1.05 | 0.901 | 1.02 | 0.779 | 0.883 | 0.723 | 0.735 | 0.672 | 0.991 | 0.998 | 0.985 | 1.12 | 0.227 | 0.182 | 0.227 | 0.225 | 0.838 | 0.698 | 0.758 | 0.693
NCI-H596 | 0.979 | 0.864 | 1.02 | 0.867 | 0.817 | 0.428 | 0.578 | 0.576 | 1.14 | 1.01 | 1.08 | 0.857 | 0.93 | 0.943 | 1.26 | 0.794 | 1.03 | 0.981 | 1.03 | 0.795
NCI-H647 | 1.1 | 0.898 | 1 | 0.978 | 0.673 | 0.447 | 0.725 | 0.719 | 1.2 | 0.923 | 1.24 | 1.02 | 0.17 | 0.114 | 0.217 | 0.232 | 1.03 | 0.849 | 1.15 | 0.995
NCI-H650 | 1.19 | 0.864 | 0.98 | 1.02 | 0.456 | 0.383 | 0.454 | 0.717 | 0.94 | 0.799 | 1.06 | 0.801 | 0.841 | 0.7 | 0.875 | 0.938 | 0.785 | 0.775 | 0.733 | 0.729
NCI-H661 | 1.03 | 0.962 | 1.05 | 1.04 | 0.869 | 0.773 | 0.781 | 0.94 | 0.809 | 0.538 | 0.718 | 0.545 | 0.883 | 0.817 | 0.942 | 1.01 | 0.991 | 0.924 | 1.08 | 1.08
NCI-H727 | 0.952 | 0.7 | 0.969 | 0.808 | 1.1 | 1.14 | 1.13 | 1.28 | 0.312 | 0.288 | 0.296 | 0.267 | 0.345 | – | 0.355 | 0.323 | 0.789 | 0.696 | 0.693 | 0.745
NCI-H838 | 1.03 | 0.839 | 0.964 | 0.923 | 0.813 | 0.665 | 0.742 | 0.734 | 1.09 | 0.91 | 1.02 | 0.744 | 0.292 | 0.239 | 0.425 | 0.382 | 0.899 | 0.729 | 1.03 | 0.817
